Test results taken from patent publication US20080194585A1, “Fungicidal Pyrazine Derivatives” (priority 2005, published 2008).
Marks after values point to notes of the source that are not given here.

How the values were obtained:
Plasmopara viticola = assay: Test D: grape downy mildew, spray after inoculation of grape seedlings; assay type: in vivo; conditions: 100 = 100% disease control
From the text: Upon removal, disease ratings were made. […] A dash (-) indicates no test results.

Phytophthora infestans = assay: whole plant or invertebrate; assay type: in vivo; conditions: 100 = 100% disease control
Septoria tritici = assay: Test J: wheat leaf blotch, preventive spray on wheat seedlings; assay type: in vivo; conditions: 40 ppm (marked *); 100 = 100% disease control, 0 = no control
From the text: A dash (-) indicates no test results.

fusarium graminearium = assay: Test I: wheat head scab, preventive spray on wheat seedlings; conditions: 100 = 100% disease control
Description: (the causal agent of wheat head scab) and incubated in a saturated atmosphere at 20° C. for 72 h, and then moved to a growth chamber at 22° C. for 5 days, after which disease ratings were made.

[1] = tested on: Puccinia recondita f. sp. tritici; assay: Test K: wheat leaf rust, preventive spray on wheat seedlings; conditions: 40 ppm (marked *); 100 = 100% disease control, 0 = no control
Botrytis cinerea = assay: Test E: tomato botrytis, preventive spray on tomato seedlings; conditions: 40 ppm (marked *); 100 = 100% disease control, 0 = no control
Septoria nodorum = assay: Test H: wheat glum blotch, preventive spray on wheat seedlings; conditions: 40 ppm (marked *); 100 = 100% disease control, 0 = no control
Description: (the causal agent of wheat glum blotch) and incubated in a saturated atmosphere at 20° C. for 48 h, and then moved to a growth chamber at 22° C. for 5 days, after which disease ratings were made.

[2] = tested on: Erysiphe graminis f. sp. tritici; assay: Test L: wheat powdery mildew, preventive spray on wheat seedlings; conditions: 40 ppm (marked *); 100 = 100% disease control, 0 = no control
Pythium aphanidermatum = assay: Test A: bluegrass pythium blight, preventive spray on bluegrass seedlings; conditions: 100 = 100% disease control, 0 = no control
Rhizoctonia oryzae = assay: Test G: turf brown patch, preventive spray on creeping bent grass seedlings; conditions: 100 = 100% disease control
Description: (the causal agent of turf brown patch) and incubated in a saturated atmosphere at 27° C. for 24 h, and then moved to a growth chamber at 27° C. for 5 days, after which disease ratings were made.

[3] = tested on: Colletotrichum orbiculare; assay: Test B: cucumber Colletotrichum anthracnose, preventive spray on cucumber seedlings; conditions: 40 ppm (marked *); 100 = 100% disease control, 0 = no control
[4] = 40 ppm (marked *), 0 = no control
[5] = 200 ppm, 0 = no control relative to controls

SMILES | Test D disease control rating (Plasmopara viticola; 200 ppm, 0 = no control) [%] | Test F disease control rating (Phytophthora infestans; 200 ppm, 0 = no control) [%] | Test J disease control rating (Septoria tritici) | Test I disease control rating (fusarium graminearium; 200 ppm, 0 = no control) [%] | Test K disease control rating [1] | Test E disease control rating (Botrytis cinerea) | Test H disease control rating (Septoria nodorum) | Test L disease control rating [2] | Test A disease control rating (Pythium aphanidermatum; 200 ppm) [%] | Test G disease control rating (Rhizoctonia oryzae; [4]) | Test B disease control rating [3] | Test D disease control rating (Plasmopara viticola; [4]) | Test F disease control rating (Phytophthora infestans; [4]) | Test I disease control rating (fusarium graminearium; [4]) | Test A disease control rating (Pythium aphanidermatum; 40 ppm (marked *)) | Test D disease control rating (Plasmopara viticola; [5]) [%] | Test F disease control rating (Phytophthora infestans; [5]) [%] | Test I disease control rating (fusarium graminearium; [5]) [%] | Test G disease control rating (Rhizoctonia oryzae; [5]) [%]
O=c1c(-n2cccn2)nc(Cl)c(-c2c(F)cc(F)cc2F)n1-c1ccc(Br)cc1 [compound 352] | 0 | 0 | 100* % | 63 | 99* % | 99* % | 97* % | 81* % | 0 | 31* % | 99* % |  |  |  |  |  |  |  | 
O=c1c(-n2cccn2)nc(Cl)c(-c2c(F)cc(F)cc2F)n1-c1cccc(C(F)(F)F)c1 [compound 353] | 0 | 0 | 100* % | 0 | 91* % | 98* % | 98* % | 79* % | 0 | 0* % | 16* % |  |  |  |  |  |  |  | 
O=c1c(-n2cccn2)nc(Cl)c(-c2c(F)cc(F)cc2F)n1-c1ccc(C(F)(F)F)cc1 [compound 354] | 0 | 0 | 100* % | 0 | 97* % | 95* % | 91* % | 48* % | 0 | 47* % | 9* % |  |  |  |  |  |  |  | 
Cc1nc(-c2ccccn2)c(=O)n(-c2ccccc2)c1-c1c(F)cccc1F [compound 359] |  |  | 85* % |  | 0* % | 0* % | 0* % | 0* % |  | 0* % | 0* % | 8* % | 0* % | 65* % | 81* % |  |  |  | 
O=c1c(-n2cccn2)nc(Cl)c(-c2c(F)cccc2F)n1-c1ccccc1Br [compound 360] | 0 | 0 | 100* % | 86 | 100* % | 99* % | 100* % | 99* % | 0 | 65* % | 0* % |  |  |  |  |  |  |  | 
O=c1c(-n2cccn2)nc(Cl)c(-c2c(F)cccc2F)n1C1CC1 [compound 361] | 0 | 0 | 3* % | 0 | 83* % | 92* % | 98* % | 0* % | 0 | 31* % | 0* % |  |  |  |  |  |  |  | 
O=c1c(-n2cccn2)nc(Cl)c(-c2c(F)cccc2F)n1C1CC1c1ccccc1 (stereo not shown) [compound 362] | 0 | 0 | 0* % | 0 | 0* % | 0* % | 0* % | 0* % | 0 | 0* % | 0* % |  |  |  |  |  |  |  | 
O=c1c(-n2cccn2)nc(Cl)c(-c2c(F)cccc2F)n1C1CCC1 [compound 363] | 0 | 0 | 59* % | 0 | 100* % | 99* % | 100* % | 99* % | 0 | 93* % | 0* % |  |  |  |  |  |  |  | 
CC(C)Cn1c(-c2c(F)cccc2F)c(Cl)nc(-c2cnccn2)c1=O.Cl [compound 364] | 0 | 0 | 0* % | 82 | 92* % | 99* % | 0* % | 88* % | 0 | 16* % | 0* % |  |  |  |  |  |  |  | 
O=c1c(-n2cccn2)nc(Cl)c(-c2c(F)cc(F)cc2F)n1-c1cccc(Cl)c1 [compound 373] |  |  | 96* % |  | 100* % | 100* % | 99* % | 100* % |  | 93* % | 99* % | 0* % | 0* % | 78* % | 0* % |  |  |  | 
Cc1ccn(-c2nc(Cl)c(-c3c(F)cc(F)cc3F)n(-c3cccc(Cl)c3)c2=O)n1 [compound 374] |  |  | 100* % |  | 100* % | 99* % | 100* % | 100* % |  | 78* % | 100* % | 0* % | 0* % | 0* % | 0* % |  |  |  | 
O=c1c(-n2cccn2)nc(Cl)c(-c2c(F)cc(F)cc2F)n1-c1ccccc1Cl [compound 375] |  |  | 100* % |  | 100* % | 99* % | 100* % | 100* % |  | 95* % | 100* % | 0* % | 0* % | 80* % | 0* % |  |  |  | 
Cc1ccn(-c2nc(Cl)c(-c3c(F)cc(F)cc3F)n(-c3ccccc3Cl)c2=O)n1 [compound 376] |  |  | 100* % |  | 100* % | 99* % | 100* % | 100* % |  | 98* % | 100* % |  | 0* % | 0* % | 0* % | 40 |  |  | 
O=c1c(-n2cccn2)nc(Cl)c(-c2c(F)cc(F)cc2F)n1Cc1ccc(Br)cc1 [compound 377] |  |  | 100* % |  | 98* % | 99* % | 0* % | 94* % |  | 0* % | 31* % | 0* % |  |  | 0* % |  | 0 | 0 | 
Cc1cccc(-n2c(-c3c(F)cccc3F)c(Cl)nc(-n3cccn3)c2=O)c1C [compound 378] |  |  | 100* % |  | 98* % | 98* % | 98* % | 91* % |  | 51* % | 0* % | 0* % | 0* % | 0* % | 0* % |  |  |  | 
Cc1ccn(-c2nc(Cl)c(-c3c(F)cccc3F)n(-c3cccc(C)c3C)c2=O)n1 [compound 379] |  |  | 100* % |  | 95* % | 98* % | 90* % | 40* % |  | 0* % | 0* % | 0* % | 0* % | 0* % | 0* % |  |  |  | 
O=c1c(-n2cccn2)nc(Cl)c(-c2c(F)cccc2F)n1-c1cccc(F)c1F [compound 380] |  |  | 99* % |  | 100* % | 99* % | 99* % | 99* % |  |  | 96* % | 0* % | 0* % | 60* % | 0* % |  |  |  | 60
